Test results: PubChem BioAssay (NCI)
Several values for one entry are separate records, joined by “and”; a condition that tells them apart may be missing. Equal values may be shown once.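 How tested: cells in 96-well plates exposed to compound for 48 hours at five concentrations. GI50: concentration for 50% inhibition of growth. TGI is the concentration that stops growth completely.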

What was measured:
Test in all cases: inhibition of tumour cell growth, NCI panel, 48 h
A498 renal = system: A498 renal
DU-145 prostate = system: DU-145 prostate
HOP-92 NSCLC = system: HOP-92 NSCLC
MOLT-4 leukemia = system: MOLT-4 leukemia
NCI-H23 lung = system: NCI-H23 lung
SF-295 CNS = system: SF-295 CNS
SK-MEL-2 melanoma = system: SK-MEL-2 melanoma
SNB-75 CNS = system: SNB-75 CNS
SR leukemia = system: SR leukemia
SW-620 colon = system: SW-620 colon

## OC1(c2ccccc2)C2CC=CC2C1(c1ccccc1)c1ccccc1 (centres undefined)
A498 renal
  TGI: 57 µM
DU-145 prostate
  TGI: > 100 µM
HOP-92 NSCLC
  TGI: > 100 µM
MOLT-4 leukemia
  TGI: > 100 µM
NCI-H23 lung
  TGI: > 100 µM
SF-295 CNS
  TGI: > 100 µM
SK-MEL-2 melanoma
  TGI: 27.5 µM
SNB-75 CNS
  TGI: > 100 µM
SR leukemia
  TGI: > 100 µM
SW-620 colon
  TGI: > 100 µM

## CCCCC(SC(=S)N1CCCC1)C(=O)Nc1nc(CC(=O)OCC)cs1 (centres undefined)
A498 renal
  GI50: 64.6 µM
  TGI: > 100 µM
DU-145 prostate
  GI50: 67.3 µM
  TGI: > 100 µM
HOP-92 NSCLC
  GI50: 36.6 µM
  TGI: > 100 µM
MOLT-4 leukemia
  GI50: 1.91 µM
  TGI: > 100 µM
SF-295 CNS
  GI50: 47.3 µM
  TGI: > 100 µM
SK-MEL-2 melanoma
  GI50: 36.1 µM
  TGI: > 100 µM
SNB-75 CNS
  GI50: > 100 µM
  TGI: > 100 µM
SR leukemia
  GI50: 4.83 µM
  TGI: > 100 µM
SW-620 colon
  GI50: 68.6 µM
  TGI: > 100 µM

## CCCCNNC(=O)c1ccc(Br)cc1
A498 renal
  GI50: 0.364 µM
  TGI: 3.41 µM
DU-145 prostate
  GI50: 2.6 µM
  TGI: > 50 µM
HOP-92 NSCLC
  GI50: 1.46 µM
  TGI: 11.4 µM
MOLT-4 leukemia
  GI50: 2.51 µM
  TGI: > 50 µM
NCI-H23 lung
  GI50: 6.77 µM
  TGI: > 50 µM
SF-295 CNS
  GI50: 2.54 µM
  TGI: 14.7 µM
SK-MEL-2 melanoma
  GI50: 1.83 µM
  TGI: > 39.9 µM
SNB-75 CNS
  GI50: 1.83 µM
  TGI: > 50 µM
SR leukemia
  GI50: 2.76 µM
  TGI: > 50 µM
SW-620 colon
  GI50: 2.17 µM
  TGI: > 50 µM

## C=CO/N=[N+](\[O-])N(CC)CC
A498 renal
  TGI: > 100 µM
DU-145 prostate
  TGI: > 100 µM
HOP-92 NSCLC
  TGI: > 100 µM
MOLT-4 leukemia
  TGI: > 100 µM
NCI-H23 lung
  TGI: > 100 µM
SF-295 CNS
  TGI: > 100 µM
SNB-75 CNS
  TGI: > 100 µM
SR leukemia
  TGI: > 100 µM
SW-620 colon
  TGI: > 100 µM

## C=C1C(=O)O[C@H]2[C@H]1CC/C(COC(=O)CCCCCC(=O)OC/C1=C/CC[C@@]3(C)O[C@H]3[C@H]3OC(=O)C(=C)[C@@H]3CC1)=C\CC[C@@]1(C)O[C@@H]21
A498 renal
  GI50: 11.4 µM
  TGI: 27.4 µM
DU-145 prostate
  GI50: 3.19 µM
  TGI: 12.1 µM
HOP-92 NSCLC
  GI50: 1.7 µM
  TGI: 4.12 µM
MOLT-4 leukemia
  GI50: 0.633 µM
  TGI: 4.1 µM
NCI-H23 lung
  GI50: 2.72 µM
  TGI: 9.98 µM
SF-295 CNS
  GI50: 4.09 µM
  TGI: 16.5 µM
SK-MEL-2 melanoma
  GI50: 5.17 µM
  TGI: 21.2 µM
SNB-75 CNS
  GI50: 3.05 µM
  TGI: 29.6 µM
SR leukemia
  GI50: 0.336 µM
  TGI: 5.58 µM
SW-620 colon
  GI50: 1.35 µM
  TGI: 3.14 µM

## C#C[C@]1(O)CC[C@H]2[C@@H]3CC=C4c5sc(Nc6cc(F)ccc6F)nc5CC[C@]4(C)[C@H]3CC[C@@]21C
A498 renal
  GI50: 1.37 µM
  TGI: 2.76 µM
DU-145 prostate
  GI50: 1.63 µM
  TGI: 3.44 µM
HOP-92 NSCLC
  GI50: 2.06 µM
  TGI: 5.49 µM
MOLT-4 leukemia
  GI50: 0.416 µM
  TGI: 10.2 µM
NCI-H23 lung
  GI50: 1.78 µM
  TGI: 4.38 µM
SF-295 CNS
  GI50: 0.224 µM
  TGI: 0.592 µM
SK-MEL-2 melanoma
  GI50: 1.59 µM
  TGI: 4.14 µM
SNB-75 CNS
  GI50: 0.736 µM
  TGI: 2.18 µM
SR leukemia
  GI50: 0.568 µM
  TGI: > 100 µM
SW-620 colon
  GI50: 1.78 µM
  TGI: 4.38 µM

## COc1ccccc1/C=C1\COc2ccc(-c3ccccc3)cc2C1=O
A498 renal
  GI50: 2.53 µM
  TGI: 6.43 µM
DU-145 prostate
  GI50: 2.53 µM
  TGI: 6.63 µM
HOP-92 NSCLC
  GI50: 4.18 µM
  TGI: > 100 µM
MOLT-4 leukemia
  GI50: 2.16 µM
  TGI: > 100 µM
NCI-H23 lung
  GI50: 4.38 µM
  TGI: 59.3 µM
SF-295 CNS
  GI50: 4 µM
  TGI: 85.4 µM
SK-MEL-2 melanoma
  GI50: 3.82 µM
  TGI: 22.1 µM
SNB-75 CNS
  GI50: 2.46 µM
  TGI: 6.97 µM
SR leukemia
  GI50: 1.31 µM
  TGI: > 100 µM
SW-620 colon
  GI50: 2.39 µM
  TGI: 5.6 µM

## C=CC(=O)N1CCC(c2ccc(C(N)=O)c(-c3ccc(Oc4ccccc4)cc3)n2)CC1
A498 renal
  GI50: 12.8 µM
  TGI: 50.1 µM
DU-145 prostate
  GI50: 31.7 µM
  TGI: > 100 µM
HOP-92 NSCLC
  GI50: 10.4 µM
  TGI: 76.6 µM
MOLT-4 leukemia
  GI50: 27.3 µM
  TGI: > 100 µM
NCI-H23 lung
  GI50: 34.6 µM
  TGI: > 100 µM
SF-295 CNS
  GI50: 27.3 µM
  TGI: > 100 µM
SK-MEL-2 melanoma
  GI50: 27.1 µM
  TGI: > 100 µM
SNB-75 CNS
  GI50: 17 µM
  TGI: > 100 µM
SR leukemia
  GI50: 28 µM
  TGI: > 100 µM
SW-620 colon
  GI50: 41.2 µM
  TGI: > 100 µM

## CCOC(=O)N1C/C(=C\c2ccccc2)C(=O)/C(=C/c2ccccc2)C1
A498 renal
  TGI: 34.2 µM
DU-145 prostate
  TGI: > 55.8 µM
HOP-92 NSCLC
  TGI: 22.4 µM
MOLT-4 leukemia
  TGI: 6 µM
NCI-H23 lung
  TGI: 11.4 µM
SF-295 CNS
  TGI: 10.1 µM
SK-MEL-2 melanoma
  TGI: 28.2 µM
SNB-75 CNS
  TGI: 22.4 µM
SR leukemia
  TGI: 4.05 µM
SW-620 colon
  TGI: 3.7 µM

## O=C(NCCN1CCOCC1)OCc1nc2nc(Cl)nc(N3CCOCC3)c2[nH]1
A498 renal
  GI50: 1.68 µM
  TGI: 6.66 µM
DU-145 prostate
  GI50: 2.37 µM
  TGI: 7.79 µM
HOP-92 NSCLC
  GI50: 1.41 µM
  TGI: > 100 µM
MOLT-4 leukemia
  GI50: 3.32 µM
  TGI: > 100 µM
NCI-H23 lung
  GI50: 3.56 µM
  TGI: > 100 µM
SF-295 CNS
  GI50: 5.77 µM
  TGI: > 100 µM
SK-MEL-2 melanoma
  GI50: 6.66 µM
  TGI: > 100 µM
SNB-75 CNS
  GI50: 4.12 µM
  TGI: > 100 µM
SR leukemia
  GI50: 0.728 µM
  TGI: > 100 µM
SW-620 colon
  GI50: 2.68 µM
  TGI: > 100 µM

## COc1ccc(C(=O)Cn2c(C(=O)c3ccccc3)nc3ccccc32)cc1
A498 renal
  GI50: 2.9 µM
  TGI: > 100 µM
DU-145 prostate
  GI50: 4.61 µM
  TGI: > 100 µM
HOP-92 NSCLC
  GI50: > 100 µM
  TGI: > 100 µM
MOLT-4 leukemia
  GI50: 1.87 µM
  TGI: > 100 µM
NCI-H23 lung
  GI50: 5.08 µM
  TGI: > 100 µM
SF-295 CNS
  GI50: 3.19 µM
  TGI: > 100 µM
SK-MEL-2 melanoma
  TGI: > 100 µM
SNB-75 CNS
  GI50: 4.61 µM
  TGI: > 100 µM
SR leukemia
  GI50: 0.763 µM
SW-620 colon
  GI50: 1.15 µM
  TGI: > 100 µM

## O=C1CCc2c(sc3[nH]c(=S)n(-c4cc(C(F)(F)F)cc(C(F)(F)F)c4)c(=O)c23)C1
A498 renal
  GI50: 2.15 µM
  TGI: 7.44 µM
DU-145 prostate
  GI50: 0.775 µM
  TGI: > 40 µM
HOP-92 NSCLC
  GI50: 0.205 µM
  TGI: 0.692 µM
MOLT-4 leukemia
  GI50: 0.636 µM
  TGI: 9.15 µM
NCI-H23 lung
  GI50: 0.346 µM
  TGI: 2.24 µM
SF-295 CNS
  GI50: 0.318 µM
  TGI: 1.1 µM
SK-MEL-2 melanoma
  GI50: 0.721 µM
  TGI: 3.74 µM
SNB-75 CNS
  GI50: 0.328 µM
  TGI: 3.66 µM
SR leukemia
  GI50: 0.516 µM
  TGI: > 100 µM
SW-620 colon
  GI50: 0.376 µM
  TGI: 15.7 µM

## COc1cc(-c2nc3ccccc3s2)ccc1OCCCCOc1cc2c(cc1OC)C(=O)N1CCC[C@H]1C=N2
A498 renal
  GI50: 1.6 µM
  TGI: 4.16 µM
DU-145 prostate
  GI50: 0.832 µM
  TGI: 6.06 µM
HOP-92 NSCLC
  GI50: 0.475 µM
  TGI: 1.19 µM
MOLT-4 leukemia
  GI50: 0.952 µM
  TGI: 7.99 µM
NCI-H23 lung
  GI50: 1.47 µM
  TGI: 4.72 µM
SF-295 CNS
  GI50: 2.02 µM
  TGI: 10.3 µM
SK-MEL-2 melanoma
  GI50: 1.6 µM
  TGI: 4.23 µM
SNB-75 CNS
  GI50: 1.4 µM
  TGI: 2.84 µM
SR leukemia
  GI50: 0.212 µM
  TGI: 0.785 µM
SW-620 colon
  GI50: 0.801 µM
  TGI: 2.72 µM

## O=C1NC(N/N=C\C(O)C(O)C(O)C(O)CO)=N/C1=C/c1ccccc1 (centres undefined)
A498 renal
  GI50: 45.2 µM and 15.8 µM and > 100 µM
  TGI: > 100 µM and 39.5 µM
DU-145 prostate
  GI50: > 100 µM and 17.6 µM
  TGI: > 100 µM and 48.9 µM
HOP-92 NSCLC
  GI50: 60.1 µM and 15.5 µM and > 100 µM
  TGI: > 100 µM and 33.9 µM
MOLT-4 leukemia
  GI50: 22.3 µM and 2.74 µM and 25.7 µM
NCI-H23 lung
  GI50: > 100 µM and 19.3 µM
  TGI: > 100 µM and 36.5 µM
SF-295 CNS
  GI50: 84.1 µM and 16.2 µM and > 100 µM
  TGI: > 100 µM and 38.2 µM
SK-MEL-2 melanoma
  GI50: > 100 µM and 16.6 µM
  TGI: > 100 µM and 32.7 µM
SNB-75 CNS
  GI50: > 100 µM and 24.9 µM
  TGI: > 100 µM and 54 µM
SR leukemia
  GI50: 51 µM and 16.3 µM and 99.4 µM
  TGI: > 100 µM and 51.2 µM
SW-620 colon
  GI50: 54.2 µM and 23 µM and > 100 µM
  TGI: > 100 µM and 83.4 µM
